Results on three compounds are retold here after ChEMBL document CHEMBL1667728, “Stachylines A-D from the sponge-derived fungus Stachylidium sp” (J Nat Prod, 2011).

Assay [1] concerns Human immunodeficiency virus. The assay is described as follows: Antiviral activity against HIV. Type of assay: functional, organism-based.
Another assay deals with Influenza A virus. The assay is described as follows: Antiviral activity against Influenza virus. Format: functional, organism-based.

Active and inactive are the calls of the source. The rule behind the calls is not given here.

As for `C=C(C)[C@H](O)COc1ccc(CC(=O)O)cc1`, the result (in assay [1]; in the assay with Influenza A virus) was inactive.
On to `C=C(C)[C@H](O)COc1ccc(CC=NO)cc1` (mixture of isomers), for which the outcome (in assay [1]; with Influenza A virus) was inactive.
As to `C=C(C)[C@H](O)COc1ccc(CCO)cc1`, the result (in assay [1]; with Influenza A virus) was inactive.
